Like-named read-outs stand apart in the source and are kept apart here.
How the values were obtained:
EPSPS enzyme = molecular target: T1, EPSPS enzyme (Escherichia coli, UniProt P0A6D3); assay: Enzyme studies of EPSPS inhibition; assay type: biochemical; conditions: oxalic acid without glyphosate
T1 sequence (P0A6D3 1-427): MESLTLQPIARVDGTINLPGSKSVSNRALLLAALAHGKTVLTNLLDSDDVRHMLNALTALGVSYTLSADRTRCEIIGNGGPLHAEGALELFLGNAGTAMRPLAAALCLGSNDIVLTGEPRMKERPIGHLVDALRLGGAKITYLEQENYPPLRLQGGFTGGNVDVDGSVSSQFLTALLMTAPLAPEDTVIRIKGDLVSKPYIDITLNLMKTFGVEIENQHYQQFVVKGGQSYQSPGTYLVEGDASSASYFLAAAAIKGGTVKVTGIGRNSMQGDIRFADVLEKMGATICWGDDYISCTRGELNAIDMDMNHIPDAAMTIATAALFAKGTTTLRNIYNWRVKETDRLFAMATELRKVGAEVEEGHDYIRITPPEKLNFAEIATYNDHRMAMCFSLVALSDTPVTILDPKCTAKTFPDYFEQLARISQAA
Excerpt: It has been discovered that oxalic acid and derivatives thereof enhance the pesticidal activity of a pesticide by acting as either an allosteric or cooperative effecter of the inhibition of the target enzyme 5-enolpyruvylishikimate-3-phosphate synthase (hereinafter referred to as EPSP synthase or EPSPS). For example, oxalic acid increases the inhibition of EPSPS enzyme by glyphosate to enhance the physiological response of plants at the enzyme level. […] In other words, the oxalic acid is absorbed and systemically transported throughout the plant.
Glyphosate inhibits the shikimic acid pathway which leads to the biosynthesis of aromatic compounds including amino acids, plant hormones and vitamins. Specifically, glyphosate curbs the conversion of phosphoenolpyruvic acid (PEP) and 3-phosphoshikimic acid to 5-enolpyruvyl-3-phosphoshikimic acid by inhibiting the EPSPS enzyme. It is believed that oxalic acid and other dicarboxylic acids enhance the binding efficiency of glyphosate to the S3P-EPSPS complex, resulting in a whole plant response to the oxalate at a given glyphosate concentration. […] This would lower the Kd of the S3P-EPSPS-glyphosate ternary complex. Data reported in the literature from x-ray crystallography have clearly identified the 427 amino acid side chains. […]

ABUTH = assay: Greenhouse herbicidal effectiveness, ABUTH; assay type: in vivo, velvetleaf; conditions: for inhibition at 2 g/ha / inhibition at 3 g/ha / inhibition at 4 g/ha / inhibition at 5 g/ha: Abutilon theophrasti; for efficacy ABUTH: Table 19A, 16 days after treatment
Excerpt: (§1) The following greenhouse testing procedure was used for evaluating compositions of the Examples to determine herbicidal effectiveness, except where otherwise indicated.
(§2) Seeds of the plant species indicated were planted in 88 mm square pots in a soil mix which was previously sterilized and prefertilized with a 14-14-14 NPK slow release fertilizer at a rate of 3.6 kg/m3. The pots were placed in a greenhouse with sub-irrigation. About one week after emergence, seedlings were thinned as needed, including removal of any unhealthy or abnormal plants, to create a uniform series of test pots.
(§3) The plants were maintained for the duration of the test in the greenhouse where they received a minimum of 14 hours of light per day. […] Exposure temperatures were not precisely controlled but averaged about 29° C. during the day and about 21° C. during the night. Plants were sub-irrigated throughout the test to ensure adequate soil moisture levels.
(§4) Pots were assigned to different treatments in a fully randomized experimental design with 6 replications. A set of pots was left untreated as a reference against which affects of the treatments could later be evaluated.
(§5) Application of glyphosate compositions was made by spraying with a track sprayer fitted with a 9501E nozzle calibrated to deliver a spray volume of 93 liters per hectare (l/ha) at a pressure of 165 kilopascals (kPa). After treatment, pots were returned to the greenhouse until ready for evaluation.
(§6) Treatments were made using dilute aqueous compositions. These could be prepared as spray compositions directly from their ingredients, or by dilution with water of preformulated concentrate compositions.
(§7) For evaluation of herbicidal effectiveness, all plants in the test were examined by a single practiced technician, who recorded percent control, a visual measurement of the effectiveness of each treatment by comparison with untreated plants. […] The reported % control values represent the average for all replicates of each treatment.

plants = assay: Whole plant response to oxalic acid by itself; assay type: in vivo; conditions: enzyme studies and whole plant response
Excerpt: Glyphosate inhibits the shikimic acid pathway which leads to the biosynthesis of aromatic compounds including amino acids, plant hormones and vitamins. Specifically, glyphosate curbs the conversion of phosphoenolpyruvic acid (PEP) and 3-phosphoshikimic acid to 5-enolpyruvyl-3-phosphoshikimic acid by inhibiting the EPSPS enzyme. It is believed that oxalic acid and other dicarboxylic acids enhance the binding efficiency of glyphosate to the S3P-EPSPS complex, resulting in a whole plant response to the oxalate at a given glyphosate concentration. […] This would lower the Kd of the S3P-EPSPS-glyphosate ternary complex. Data reported in the literature from x-ray crystallography have clearly identified the 427 amino acid side chains. Each of the six α-helices in the top domain and four of the six α-helices in the lower domain are capped with basic amino acid residues. Electrostatic interaction of a dicarboxylic acid or other compound of the proper stearic requirement with these basic amino acid residues on the surface of the two domains of the enzyme are believed to produce a stapling action. Such stapling action is possible only on at least a partially closed conformation of the ternary complex of S3P-EPSPS-glyphosate. […] Any compound with stapling action to close the ternary complex tighter, thereby enhancing the inhibition of the enzyme is a suitable enhancer component of the invention.

ECHCF = assay: Greenhouse herbicidal effectiveness, ECHCF; assay type: in vivo, Japanese millet, barnyardgrass; conditions: Table 19A, 16 days after treatment
Excerpt: as §1, §2, §3, §4, §5, §6, §7

TRZVX = assay: Greenhouse herbicidal effectiveness, TRZVX; assay type: in vivo, wheat; conditions: Table 19A, 16 days after treatment
Excerpt: as §1, §2, §3, §4, §5, §6, §7

[1] = 30 g a.e./ha, tank mix OTH1 1 % v/v
[2] = 70 g a.e./ha, tank mix OTH1 1 % v/v
[3] = 100 g a.e./ha, tank mix OTH1 1 % v/v
[4] = 200 g a.e./ha, tank mix OTH1 1 % v/v

O=C(O)C(=O)O [oxalic acid, Oxalic Acid]
inhibitory effect on the EPSPS enzyme per se (EPSPS enzyme): do not have any inhibitory effect on the enzyme per se
inhibition at 2 g/ha (ABUTH; 336 h, read-out: % inhibition ABUTH (14 DAT), oxalate/oxalic acid alone, 2 g a.e./ha, 14 DAT, Table 44A): 0%
inhibition at 3 g/ha (ABUTH; 336 h, read-out: % inhibition ABUTH (14 DAT), oxalate/oxalic acid alone, 3 g a.e./ha, 14 DAT, Table 44A): 0%
inhibition at 4 g/ha (ABUTH; 336 h, read-out: % inhibition ABUTH (14 DAT), oxalate/oxalic acid alone, 4 g a.e./ha, 14 DAT, Table 44A): 0%
inhibition at 5 g/ha (ABUTH; 336 h, read-out: % inhibition ABUTH (14 DAT), oxalate/oxalic acid alone, 5 g a.e./ha, 14 DAT, Table 44A): 0%
inhibition at 2 g/ha (ABUTH; 480 h, read-out: % inhibition ABUTH (20 DAT), oxalate/oxalic acid alone, 2 g a.e./ha, 20 DAT, Table 44A): 0%
inhibition at 3 g/ha (ABUTH; 480 h, read-out: % inhibition ABUTH (20 DAT), oxalate/oxalic acid alone, 3 g a.e./ha, 20 DAT, Table 44A): 0%
inhibition at 4 g/ha (ABUTH; 480 h, read-out: % inhibition ABUTH (20 DAT), oxalate/oxalic acid alone, 4 g a.e./ha, 20 DAT, Table 44A): 0%
inhibition at 5 g/ha (ABUTH; 480 h, read-out: % inhibition ABUTH (20 DAT), oxalate/oxalic acid alone, 5 g a.e./ha, 20 DAT, Table 44A): 0%
herbicidal property by itself (plants): does not have any herbicidal property

c1cc[n+]2c(c1)-c1cccc[n+]1CC2 [diquat]
efficacy ABUTH (ABUTH; 30 g a.e./ha, no OTH1): 5
efficacy ABUTH (ABUTH; [1]): 10
efficacy ABUTH (ABUTH; 70 g a.e./ha, no OTH1): 15
efficacy ABUTH (ABUTH; [2]): 30
efficacy ABUTH (ABUTH; 100 g a.e./ha, no OTH1): 20
efficacy ABUTH (ABUTH; [3]): 41
efficacy ABUTH (ABUTH; 200 g a.e./ha, no OTH1): 32
efficacy ABUTH (ABUTH; [4]): 57
efficacy ECHCF (ECHCF; 30 g a.e./ha, no OTH1): 19
efficacy ECHCF (ECHCF; [1]): 11
efficacy ECHCF (ECHCF; 70 g a.e./ha, no OTH1): 33
efficacy ECHCF (ECHCF; [2]): 24
efficacy ECHCF (ECHCF; 100 g a.e./ha, no OTH1): 43
efficacy ECHCF (ECHCF; [3]): 33
efficacy ECHCF (ECHCF; 200 g a.e./ha, no OTH1): 46
efficacy ECHCF (ECHCF; [4]): 50
efficacy TRZVX (TRZVX; 30 g a.e./ha, no OTH1): 3
efficacy TRZVX (TRZVX; [1]): 14
efficacy TRZVX (TRZVX; 70 g a.e./ha, no OTH1): 7
efficacy TRZVX (TRZVX; [2]): 16
efficacy TRZVX (TRZVX; 100 g a.e./ha, no OTH1): 27
efficacy TRZVX (TRZVX; [3]): 19
efficacy TRZVX (TRZVX; 200 g a.e./ha, no OTH1): 46
efficacy TRZVX (TRZVX; [4]): 47

C[C@@H](Oc1ccc(Oc2ccc(C(F)(F)F)cn2)cc1)C(=O)O [fluazifop-p]
efficacy ABUTH (ABUTH; 30 g a.e./ha, no OTH1): 0, 0, 0, 0
efficacy ABUTH (ABUTH; [1]): 0, 0, 0, 0
efficacy ABUTH (ABUTH; 70 g a.e./ha, no OTH1): 0, 0, 0, 0
efficacy ABUTH (ABUTH; [2]): 0, 0, 0, 0
efficacy ABUTH (ABUTH; 100 g a.e./ha, no OTH1): 0, 0, 0, 0
efficacy ABUTH (ABUTH; [3]): 0, 0, 0, 0
efficacy ABUTH (ABUTH; 200 g a.e./ha, no OTH1): 0, 0, 0, 0
efficacy ABUTH (ABUTH; [4]): 0, 0, 0, 0
efficacy ECHCF (ECHCF; 30 g a.e./ha, no OTH1): 98
efficacy ECHCF (ECHCF; [1]): 97
efficacy ECHCF (ECHCF; 70 g a.e./ha, no OTH1): 100
efficacy ECHCF (ECHCF; [2]): 100
efficacy ECHCF (ECHCF; 100 g a.e./ha, no OTH1): 100
efficacy ECHCF (ECHCF; [3]): 100
efficacy ECHCF (ECHCF; 200 g a.e./ha, no OTH1): 100
efficacy ECHCF (ECHCF; [4]): 100
efficacy TRZVX (TRZVX; 30 g a.e./ha, no OTH1): 70
efficacy TRZVX (TRZVX; [1]): 73
efficacy TRZVX (TRZVX; 70 g a.e./ha, no OTH1): 85
efficacy TRZVX (TRZVX; [2]): 83
efficacy TRZVX (TRZVX; 100 g a.e./ha, no OTH1): 91
efficacy TRZVX (TRZVX; [3]): 93
efficacy TRZVX (TRZVX; 200 g a.e./ha, no OTH1): 97
efficacy TRZVX (TRZVX; [4]): 98

From patent US7883715B2, “Pesticide compositions containing dicarboxylic acids” (Monsanto Technology LLC, priority 2002, dated 2011)
